# Data: patent US20240252488A1 (KOREA RESEARCH INSTITUTE OF CHEMICAL TECHNOLOGY, priority 2020, published 2024)
# Assays:
# MLKL [1] = biological target: T1, MLKL (Homo sapiens, UniProt Q8NB16); test: MLKL degradation assay in HepG2 cell line (western blot); type: cell-based; parameters: endogenous in cells; host or cells: HepG2 or HaCaT; settings: cell line not given; for Degradation assay (Degradation %) 1 μM: compound 1 μM; for Degradation assay (Degradation %) 10 μM: compound 10 μM
# T1 sequence (Q8NB16 1-471): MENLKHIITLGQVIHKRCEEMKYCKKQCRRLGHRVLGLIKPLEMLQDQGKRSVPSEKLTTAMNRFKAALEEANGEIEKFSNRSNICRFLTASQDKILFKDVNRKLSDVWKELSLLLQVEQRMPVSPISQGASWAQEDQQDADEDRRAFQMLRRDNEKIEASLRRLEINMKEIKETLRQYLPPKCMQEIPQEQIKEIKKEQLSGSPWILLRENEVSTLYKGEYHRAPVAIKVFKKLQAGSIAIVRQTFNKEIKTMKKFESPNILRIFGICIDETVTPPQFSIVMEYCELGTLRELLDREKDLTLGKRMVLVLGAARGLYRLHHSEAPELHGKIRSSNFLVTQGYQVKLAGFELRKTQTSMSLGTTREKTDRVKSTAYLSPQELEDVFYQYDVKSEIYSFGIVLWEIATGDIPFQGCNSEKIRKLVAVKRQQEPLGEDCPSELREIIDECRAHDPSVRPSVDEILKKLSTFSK
# In short: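 Degradation is judged from MLKL band intensity on immunoblots of HepG2 lysates taken after 20-24 hours of compound at final 1 or 10 μM.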
# MLKL [2] = biological target: T1, MLKL; test: Measurement of binding affinity with MLKL receptor (competitive binding assay, Kd); parameters: made in house; host or cells: HEK 293 cell line (T7 phage in E. coli BL21-derived host is also described)
# In short: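 MLKL was produced in HEK 293 cells and tagged with DNA for detection. Liganded beads were blocked with excess biotin and washed to cut non-specific binding, then compounds (111× DMSO stocks, 0.9% DMSO in assay) competed for binding. Eluate kinase was measured by qPCR for Kd.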
# FADD−/− Jurkat cells = test: Necroptosis inhibition assay, TNF-α-induced necroptosis (CellTiter-Glo 2.0); type: cell-based, human; settings: TNF-α 15 ng/mL; for Necroptosis inhibition assay (Rescue %) 1 μM: compound 1 μM; for Necroptosis inhibition assay (Rescue %) 10 μM: compound 10 μM
# In short: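 Tested at three fixed concentrations (0.1, 1, 10 μM final) with a 30-minute room-temperature preincubation ahead of 15 ng/mL TNF-α challenge lasting 20 to 24 hours. Inhibition rate and cytotoxicity derive from ATP luminescence.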
Degradation assay (Degradation %) 1 μM (MLKL [1]) [%],Degradation assay (Degradation %) 10 μM (MLKL [1]) [%],Kd (MLKL [2]) [nM],SMILES,Necroptosis inhibition assay (Rescue %) 1 μM (FADD−/− Jurkat cells) [%],Necroptosis inhibition assay (Rescue %) 10 μM (FADD−/− Jurkat cells) [%],Necroptosis inhibition assay (Rescue %) 1 μM (FADD−/− Jurkat cells; FADD−/− Jurkat cells) [%],Necroptosis inhibition assay (Rescue %) 10 μM (FADD−/− Jurkat cells; FADD−/− Jurkat cells) [%]
88.25,83.83,8.9,"Nc1ncc(-c2cnn(C3CCN(C(=O)COC4CCN(C(=O)C5CCN(c6ccc7c(c6)C(=O)N(C6CCC(=O)NC6=O)C7=O)CC5)CC4)CC3)c2)nc1C(=O)O[C@@H](C(=O)Nc1ccc(F)cc1)c1ccccc1 (stereo partly drawn) [TDH-398, (R)-2-((4-fluorophenyl)amino)-2-oxo-1-phenylethyl 3-amino-6-(1-(1-(2-((1-(1-(2-(2,6-dioxopiperidin-3-yl)-1,3-dioxoisoindolin-5-yl)piperidine-4-carbonyl)piperidin-4-yl)oxy)acetyl)piperidin-4-yl)-1H-pyrazol-4-yl)pyrazine-2-carboxylate]",36.81,30.39,–,–
82.22,74.77,4.4,"Nc1ncc(-c2cnn(C3CCN(C(=O)COC4CCN(c5ccc6c(c5)C(=O)N(C5CCC(=O)NC5=O)C6=O)CC4)CC3)c2)nc1C(=O)O[C@@H](C(=O)Nc1ccc(F)cc1)c1ccccc1 (stereo partly drawn) [TDH-400, (R)-2-((4-fluorophenyl)amino)-2-oxo-1-phenylethyl 3-amino-6-(1-(1-(2-((1-(2-(2,6-dioxopiperidin-3-yl)-1,3-dioxoisoindolin-5-yl)piperidin-4-yl)oxy)acetyl)piperidin-4-yl)-1H-pyrazol-4-yl)pyrazine-2-carboxylate]",27.80,28.44,–,–
74.27,72.99,6.8,"Nc1ncc(-c2cnn(C3CCN(C(=O)CC4CCN(C(=O)C5CN(c6ccc7c(c6)C(=O)N(C6CCC(=O)NC6=O)C7=O)C5)CC4)CC3)c2)nc1C(=O)O[C@@H](C(=O)Nc1ccc(F)cc1)c1ccccc1 (stereo partly drawn) [TDH-401, (R)-2-((4-fluorophenyl)amino)-2-oxo-1-phenylethyl 3-amino-6-(1-(1-(2-(1-(1-(2-(2,6-dioxopiperidin-3-yl)-1,3-dioxoisoindolin-5-yl)azetidine-3-carbonyl)piperidin-4-yl)acetyl)piperidin-4-yl)-1H-pyrazol-4-yl)pyrazine-2-carboxylate]",–,–,33.10,28.25
65.36,48.34,7.7,"Nc1ncc(-c2cnn(C3CCN(C(=O)CC4CCN(C(=O)CC5CCN(c6ccc7c(c6)C(=O)N(C6CCC(=O)NC6=O)C7=O)CC5)CC4)CC3)c2)nc1C(=O)O[C@@H](C(=O)Nc1ccc(F)cc1)c1ccccc1 (stereo partly drawn) [TDH-402, (R)-2-((4-fluorophenyl)amino)-2-oxo-1-phenylethyl 3-amino-6-(1-(1-(2-(1-(2-(1-(2-(2,6-dioxopiperidin-3-yl)-1,3-dioxoisoindolin-5-yl)piperidin-4-yl)acetyl)piperidin-4-yl)acetyl)piperidin-4-yl)-1H-pyrazol-4-yl)pyrazine-2-carboxylate]",–,–,23.40,19.16
79.40,83.30,2.8,"Nc1ncc(-c2cnn(C3CCN(C(=O)CC4CCN(C(=O)CCc5ccc6c(c5)C(=O)N(C5CCC(=O)NC5=O)C6=O)CC4)CC3)c2)nc1C(=O)O[C@@H](C(=O)Nc1ccc(F)cc1)c1ccccc1 (stereo partly drawn) [TDH-403, (R)-2-((4-fluorophenyl)amino)-2-oxo-1-phenylethyl 3-amino-6-(1-(1-(2-(1-(3-(2-(2,6-dioxopiperidin-3-yl)-1,3-dioxoisoindolin-5-yl)propanoyl)piperidin-4-yl)acetyl)piperidin-4-yl)-1H-pyrazol-4-yl)pyrazine-2-carboxylate]",–,–,43.50,29.42

# Second part, the compound before the results:
SMILES,Degradation assay (Degradation %) 1 μM (MLKL [1]) [%],Degradation assay (Degradation %) 10 μM (MLKL [1]) [%],Kd (MLKL [2]) [nM],Necroptosis inhibition assay (Rescue %) 1 μM (FADD−/− Jurkat cells) [%],Necroptosis inhibition assay (Rescue %) 10 μM (FADD−/− Jurkat cells) [%],Necroptosis inhibition assay (Rescue %) 1 μM (FADD−/− Jurkat cells; FADD−/− Jurkat cells) [%],Necroptosis inhibition assay (Rescue %) 10 μM (FADD−/− Jurkat cells; FADD−/− Jurkat cells) [%]
"Nc1ncc(-c2cnn(C3CCN(C(=O)COC4CCN(C(=O)CNc5cccc6c5C(=O)N(C5CCC(=O)NC5=O)C6=O)CC4)CC3)c2)nc1C(=O)O[C@@H](C(=O)Nc1ccc(F)cc1)c1ccccc1 (stereo partly drawn) [TDH-395, (R)-2-((4-fluorophenyl)amino)-2-oxo-1-phenylethyl 3-amino-6-(1-(1-(2-((1-((2-(2,6-dioxopiperidin-3-yl)-1,3-dioxoisoindolin-4-yl)glycyl)piperidin-4-yl)oxy)acetyl)piperidin-4-yl)-1H-pyrazol-4-yl)pyrazine-2-carboxylate]",88.76,89.67,6.1,34.73,37.15,–,–
"Nc1ncc(-c2cnn(C3CCN(C(=O)COC4CCN(C(=O)CNc5ccc6c(c5)C(=O)N(C5CCC(=O)NC5=O)C6=O)CC4)CC3)c2)nc1C(=O)O[C@@H](C(=O)Nc1ccc(F)cc1)c1ccccc1 (stereo partly drawn) [TDH-396, (R)-2-((4-fluorophenyl)amino)-2-oxo-1-phenylethyl 3-amino-6-(1-(1-(2-((1-((2-(2,6-dioxopiperidin-3-yl)-1,3-dioxoisoindolin-5-yl)glycyl)piperidin-4-yl)oxy)acetyl)piperidin-4-yl)-1H-pyrazol-4-yl)pyrazine-2-carboxylate]",3.42,88.49,4.2,53.20,46.28,–,–
"Nc1ncc(-c2cnn(C3CCN(C(=O)COC4CCN(C(=O)C5CCN(c6cccc7c6C(=O)N(C6CCC(=O)NC6=O)C7=O)CC5)CC4)CC3)c2)nc1C(=O)O[C@@H](C(=O)Nc1ccc(F)cc1)c1ccccc1 (stereo partly drawn) [TDH-397, (R)-2-((4-fluorophenyl)amino)-2-oxo-1-phenylethyl 3-amino-6-(1-(1-(2-((1-(1-(2-(2,6-dioxopiperidin-3-yl)-1,3-dioxoisoindolin-4-yl)piperidine-4-carbonyl)piperidin-4-yl)oxy)acetyl)piperidin-4-yl)-1H-pyrazol-4-yl)pyrazine-2-carboxylate]",87.39,79.77,2.7,53.83,37.24,–,–
"Nc1ncc(-c2cnn(C3CCN(C(=O)COC4CCN(c5cccc6c5C(=O)N(C5CCC(=O)NC5=O)C6=O)CC4)CC3)c2)nc1C(=O)O[C@@H](C(=O)Nc1ccc(F)cc1)c1ccccc1 (stereo partly drawn) [TDH-399, (R)-2-((4-fluorophenyl)amino)-2-oxo-1-phenylethyl 3-amino-6-(1-(1-(2-((1-(2-(2,6-dioxopiperidin-3-yl)-1,3-dioxoisoindolin-4-yl)piperidin-4-yl)oxy)acetyl)piperidin-4-yl)-1H-pyrazol-4-yl)pyrazine-2-carboxylate]",74.40,71.63,7.6,34.21,27.35,–,–
"Nc1ncc(-c2cnn(C3CCN(C(=O)CC4CCN(C(=O)CCc5cccc6c5CN(C5CCC(=O)NC5=O)C6=O)CC4)CC3)c2)nc1C(=O)O[C@@H](C(=O)Nc1ccc(F)cc1)c1ccccc1 (stereo partly drawn) [TDH-404, (R)-2-((4-fluorophenyl)amino)-2-oxo-1-phenylethyl 3-amino-6-(1-(1-(2-(1-(3-(2-(2,6-dioxopiperidin-3-yl)-1-oxoisoindolin-4-yl)propanoyl)piperidin-4-yl)acetyl)piperidin-4-yl)-1H-pyrazol-4-yl)pyrazine-2-carboxylate]",45.30,79.08,1.1,–,–,26.83,49.11
"Nc1ncc(-c2cnn(C3CCN(C(=O)CC4CCN(C(=O)CNc5ccc6nnn(C7CCC(=O)NC7=O)c(=O)c6c5)CC4)CC3)c2)nc1C(=O)O[C@@H](C(=O)Nc1ccc(F)cc1)c1ccccc1 (stereo partly drawn) [TDH-405, (R)-2-((4-fluorophenyl)amino)-2-oxo-1-phenylethyl 3-amino-6-(1-(1-(2-(1-((3-(2,6-dioxopiperidin-3-yl)-4-oxo-3,4-dihydrobenzo[d][1,2,3]triazin-6-yl)glycyl)piperidin-4-yl)acetyl)piperidin-4-yl)-1H-pyrazol-4-yl)pyrazine-2-carboxylate]",70.59,64.30,3.2,–,–,36.97,37.28
